Measurements taken from US8912202B2, “N-(benzimimdazol-2-yl)-cyclopropane carboxamides as lysophosphatidic acid antagonists” (Merck Patent GmbH, priority 2011, dated 2014).

Target: T1, LPA2R (Homo sapiens, UniProt Q9HBW0)
T1 construct: expressed in transfected cells; host or cells: U2OS
Assay: LPA2R-Calciumflux assay (FLIPR, intracellular calcium mobilisation after LPA)
Assay type: cell-based
Conditions: U2OS cells recombinant expressing LPA2R; antagonism of LPA-induced calcium flux; racemate of the two trans enantiomers unless marked enantiomer
Source text: The assay detects intra cellular calcium which is generated by cells upon activation of the LPA2 receptor by its ligand LPA. This transient calcium mobilization can be monitored using a commercial calcium detection kit (e.g. from Molecular Devices). The main component of such a kit is a dye, which becomes fluorescent when calcium is present—a transient fluorescence signal after addition of a ligand to a test well are the result. Readers like the FLIPR (Molecular Devices) can be used to monitor such transient “Ca-flux” signals.
The signals are calculated according to peak maximum minus base line.
Compounds which are antagonists of LPA lead to a decreased mobilisation of intracellular calcium and thus to a lower signal. The assay is performed in microplates (384 wells per plate).
LPA2R-Calciumflux Assay Protocol
The assay is run according to the following procedure:
50 uL seed cells (10000 cells/well in DMEM buffer)
• Incubate 24 h at 37° C., 10% CO2 • aspirate medium 50 uL add calcium dye 1×HBSS/HEPES buffer • incubate 1 h at 37° C. (“loading”) • equilibrate 10 min at RT 5 uL add compounds in HEPES buffer • shake 10 sec. at 1000 rpm • incubate 15 min at RT 20 uL add LPA (in the FLIPR Tetra) in Krebs-buffer/BSA & measurement
The cells are seeded in DMEM buffer (DMEM, 10% FCS, 10 mM HEPES, 1% Pen/Strep).
Dye loading is done in HBSS/HEPES buffer (100 mL 10×HBSS+20 mL 1M HEPES+880 mL water, pH 7.4)
The LPA is added in Krebs/BSA buffer (120 mM NaCl, 5 mM KCl, 0.62 mM MgSO4, 1.8 mM CaCl2, 10 mM HEPES, 6 mM D(+)-Glucose, 0.2% BSA, pH 7.4).
The compounds are pre-diluted in HEPES buffer (20 mM, pH 7.4), whereby the final DMSO content in the assay is kept at 1%. The compounds are pre-diluted in order to generate dose response series on the microplates. The dose response series consist of 10 concentrations for each compound from 30 uM final to 1 nM final. From all compound wells the resulting signals are referred to control wells (located on each plate besides the compound wells) in terms of % activity.
From these % activity values—along with the corresponding compound concentrations—IC50 values are fitted for each compound using standard fitting programs such as Graphpad Prism. Here the method “log(inhibitor) vs. response—Variable slope” is used.

T1 sequence (Q9HBW0 whole entry): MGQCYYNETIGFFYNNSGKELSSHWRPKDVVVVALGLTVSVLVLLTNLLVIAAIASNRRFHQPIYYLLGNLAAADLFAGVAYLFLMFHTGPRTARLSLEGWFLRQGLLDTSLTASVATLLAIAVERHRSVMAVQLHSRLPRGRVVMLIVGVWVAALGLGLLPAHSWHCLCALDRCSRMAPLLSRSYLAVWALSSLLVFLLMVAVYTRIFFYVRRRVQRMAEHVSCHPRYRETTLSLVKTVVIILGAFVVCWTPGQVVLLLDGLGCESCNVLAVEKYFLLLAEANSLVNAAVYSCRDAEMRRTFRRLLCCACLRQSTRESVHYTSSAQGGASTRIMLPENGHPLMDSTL

| SMILES | IC50 [nM] |
| --- | --- |
| O=C(Nc1nc2ccccc2[nH]1)C1CC1c1c(Cl)cccc1Cl (racemic) [2-(2,6-Dichloro-phenyl)-cyclopropane-carboxylic acid (1H-benzoimidazol-2-yl)-amide] | > 10000 |
| CC1(C)C(C(=O)Nc2nc3ccc(Cl)cc3[nH]2)C1c1ccccc1 (racemic) [2,2-Dimethyl-3-phenyl-cyclopropane-carboxylic acid (6-chloro-1H-benzoimidazol-2-yl)-amide] | > 10000 |
| CC(C)(C)c1ccc(C2CC2C(=O)Nc2nc3ccccc3[nH]2)cc1 (racemic) [2-(4-tert-Butyl-phenyl)-cyclopropane-carboxylic acid (1H-benzoimidazol-2-yl)-amide] | > 10000 |
| CCCS(=O)(=O)c1ccc2[nH]c(NC(=O)C3CC3c3ccccc3)nc2c1 (racemic) [2-Phenyl-cyclopropane-carboxylic acid [5-(propane-1-sulfonyl)-1H-benzoimidazol-2-yl]-amide] | 1000 to 10000 |
| COC(=O)c1cccc2[nH]c(NC(=O)C3CC3c3ccccc3)nc12 (racemic) [2-[(2-Phenyl-cyclopropane-carbonyl)-amino]-1H-benzoimidazole-4-carboxylic acid methyl ester] | 100 to 1000 |
| Cn1c(NC(=O)C2CC2c2ccccc2)nc2ccccc21 (racemic) [2-Phenyl-cyclopropane-carboxylic acid (1-methyl-1H-benzoimidazol-2-yl)-amide] | > 10000 |
| O=C(Nc1nc2ccccc2[nH]1)C1CC1c1cccc(Cl)c1Cl (racemic) [2-(2,3-Dichloro-phenyl)-cyclopropane-carboxylic acid (1H-benzoimidazol-2-yl)-amide] | 100 to 1000 |
| CN(C)c1ccc(C2CC2C(=O)Nc2nc3ccccc3[nH]2)cc1 (racemic) [2-(4-Dimethylamino-phenyl)-cyclopropane-carboxylic acid (1H-benzoimidazol-2-yl)-amide] | 1000 to 10000 |
| O=C(Nc1nc2ccccc2[nH]1)C1CC1c1cc(Br)ccc1F (racemic) [2-(5-Bromo-2-fluoro-phenyl)-cyclopropane-carboxylic acid (1H-benzoimidazol-2-yl)-amide] | 10 to 100 |
| COC(=O)c1cccc2nc(NC(=O)C3CC3c3ccccc3Cl)[nH]c12 (single isomer, unassigned; enantiomer-2) [enantiomer-2-{[2-(2-Chloro-phenyl)-cyclopropane-carbonyl]-amino}-3H-benzoimidazole-4-carboxylic acid methyl ester] | > 10000 |
| CC1(C)C(C(=O)Nc2nc3ccccc3[nH]2)C1c1ccccc1 (racemic) [2,2-Dimethyl-3-phenyl-cyclopropane-carboxylic acid (1H-benzoimidazol-2-yl)-amide] | > 10000 |
| O=C(Nc1nc2ccc(C(F)(F)F)cc2[nH]1)C1C(c2ccccc2)C1(F)F (racemic) [2,2-Difluoro-3-phenyl-cyclopropane-carboxylic acid (6-trifluoromethyl-1H-benzoimidazol-2-yl)-amide] | 100 to 1000 |
| O=C(Nc1nc2ccc(Cl)cc2[nH]1)C1CC1c1ccccc1Cl (single isomer, unassigned; enantiomer-2) [enantiomer-2-(2-Chloro-phenyl)-cyclopropane-carboxylic acid (6-chloro-1H-benzoimidazol-2-yl)-amide] | 100 to 1000 |
| O=C(Nc1nc2ccccc2[nH]1)C1CC1c1ccccc1C(F)(F)F (racemic) [2-(2-Trifluoromethyl-phenyl)-cyclopropane-carboxylic acid (1H-benzoimidazol-2-yl)-amide] | > 10000 |
| O=C(Nc1n[nH]c2ccccc12)C1CC1c1ccccc1 (racemic) [2-Phenyl-cyclopropane-carboxylic acid (1H-indazol-3-yl)-amide] | > 10000 |
| O=C(Nc1nc2cc(OCCN3CCCC3)ccc2[nH]1)C1CC1c1ccccc1 (single isomer, unassigned; enantiomer-2) [enantiomer-2-Phenyl-cyclopropane-carboxylic acid [5-(2-pyrrolidin-1-yl-ethoxy)-1H-benzoimidazol-2-yl]-amide] | 1000 to 10000 |

Continued, values first:

| IC50 [nM] | SMILES |
| --- | --- |
| 10 to 100 | O=C(Nc1nc2cc(Cl)ccc2[nH]1)C1CC1c1ccccc1 (racemic) [2-Phenyl-cyclopropane-carboxylic acid (6-chloro-1H-benzoimidazol-2-yl)-amide] |
| 1000 to 10000 | NCc1ccc2[nH]c(NC(=O)C3CC3c3ccccc3)nc2c1 (racemic) [2-Phenyl-cyclopropane-carboxylic acid (5-aminomethyl-1H-benzoimidazol-2-yl)-amide] |
| 10 to 100 | O=C(Nc1nc2c([N+](=O)[O-])cccc2[nH]1)C1CC1c1ccccc1 (racemic) [2-Phenyl-cyclopropane-carboxylic acid (4-nitro-1H-benzoimidazol-2-yl)-amide] |
| 10 to 100 | Nc1cccc2[nH]c(NC(=O)C3CC3c3ccccc3)nc12 (racemic) [2-Phenyl-cyclopropane-carboxylic acid (4-amino-1H-benzoimidazol-2-yl)-amide] |
| > 10000 | O=C(Nc1nc2ccncc2[nH]1)C1CC1c1ccccc1 (racemic) [2-Phenyl-cyclopropane-carboxylic acid (3H-imidazo[4,5-c]pyridin-2-yl)-amide] |
| 100 to 1000 | Cc1cccc2nc(NC(=O)C3CC3c3ccccc3)[nH]c12 (racemic) [2-Phenyl-cyclopropane-carboxylic acid (7-methyl-1H-benzoimidazol-2-yl)-amide] |
| 100 to 1000 | O=C(Nc1nc2c(Cl)cc(Cl)cc2[nH]1)C1CC1c1ccccc1 (racemic) [2-Phenyl-cyclopropane-carboxylic acid (4,6-dichloro-1H-benzoimidazol-2-yl)-amide] |
| 100 to 1000 | O=C(Nc1nc2cc(Cl)c(Cl)cc2[nH]1)C1CC1c1ccccc1 (racemic) [2-Phenyl-cyclopropane-carboxylic acid (5,6-dichloro-1H-benzoimidazol-2-yl)-amide] |
| 10 to 100 | CCc1ccc2[nH]c(NC(=O)C3CC3c3ccccc3)nc2c1 (racemic) [2-Phenyl-cyclopropane-carboxylic acid (5-ethyl-1H-benzoimidazol-2-yl)-amide] |
| 10 to 100 | N#Cc1ccc2nc(NC(=O)C3CC3c3ccccc3)[nH]c2c1 (single isomer, unassigned; enantiomer-2) [drawing 71, enantiomer-2-Phenyl-cyclopropane-carboxylic acid (6-cyano-1H-benzoimidazol-2-yl)-amide] |
| 100 to 1000 | N#Cc1cccc(C2CC2C(=O)Nc2nc3ccccc3[nH]2)c1 (racemic) [2-(3-Cyano-phenyl)-cyclopropane-carboxylic acid (1H-benzoimidazol-2-yl)-amide] |
| 10 to 100 | O=C(Nc1nc2ccnc(Cl)c2[nH]1)C1CC1c1ccccc1 (single isomer, unassigned; enantiomer-2) [enantiomer-2-Phenyl-cyclopropane-carboxylic acid (4-chloro-3H-imidazo[4,5-c]pyridin-2-yl)-amide] |
| 10 to 100 | Cc1cc2nc(NC(=O)C3CC3c3ccccc3)[nH]c2cc1C (racemic) [2-Phenyl-cyclopropane-carboxylic acid (5,6-dimethyl-1H-benzoimidazol-2-yl)-amide] |
| < 10 | O=C(Nc1nc2cc(Br)cnc2[nH]1)C1CC1c1ccccc1 (racemic) [2-Phenyl-cyclopropane-carboxylic acid (6-bromo-3H-imidazo[4,5-b]pyridin-2-yl)-amide] |
| < 10 | O=C(Nc1nc2cc(Cl)cnc2[nH]1)C1CC1c1ccccc1 (single isomer, unassigned; enantiomer-2) [enantiomer-2-Phenyl-cyclopropane-carboxylic acid (6-chloro-3H-imidazo[4,5-b]pyridin-2-yl)-amide] |
| 100 to 1000 | Cc1ccc2nc(NC(=O)C3CC3c3ccccc3)[nH]c2c1 (racemic) [2-Phenyl-cyclopropane-carboxylic acid (6-methyl-1H-benzoimidazol-2-yl)-amide] |
| 1000 to 10000 | Cc1ccc(C2CC2C(=O)Nc2nc3ccccc3[nH]2)cc1 (racemic) [2-p-Tolyl-cyclopropane-carboxylic acid (1H-benzoimidazol-2-yl)-amide] |
| 1000 to 10000 | O=C(Nc1nc2cc(Cl)cnc2[nH]1)[C@@H]1C[C@H]1c1ccccc1 (single isomer, unassigned) [trans-2-Phenyl-cyclopropane-carboxylic acid (6-chloro-3H-imidazo[4,5-b]pyridin-2-yl)-amide] |
| 10 to 100 | O=C(Nc1nc2ccccc2[nH]1)C1CC1c1ccc(F)cc1 (racemic) [2-(4-Fluoro-phenyl)-cyclopropane-carboxylic acid (1H-benzoimidazol-2-yl)-amide] |
